The structures appear in SMILES notation.

Assay [1] has as its target T1, MAGL (Homo sapiens, UniProt Q99685).
T1 sequence (Q99685 1-303): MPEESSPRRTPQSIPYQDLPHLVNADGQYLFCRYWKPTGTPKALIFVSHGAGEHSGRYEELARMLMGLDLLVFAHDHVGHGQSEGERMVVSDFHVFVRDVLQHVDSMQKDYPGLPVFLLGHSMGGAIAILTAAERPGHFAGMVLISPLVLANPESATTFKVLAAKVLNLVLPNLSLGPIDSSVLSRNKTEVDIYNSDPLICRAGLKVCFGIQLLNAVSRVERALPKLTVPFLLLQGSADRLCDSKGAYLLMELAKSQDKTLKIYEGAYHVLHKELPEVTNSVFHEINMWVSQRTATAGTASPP
Nature of the assay: In vitro competitive activity-based protein profiling, MAGL, human. Particulars: for inhibition at 1 µM: read-out: MAGL % inh. 1 μM (human).

Assay [2] addresses T2, MAGL (Mus musculus, UniProt O35678).
T2 sequence (O35678 1-303): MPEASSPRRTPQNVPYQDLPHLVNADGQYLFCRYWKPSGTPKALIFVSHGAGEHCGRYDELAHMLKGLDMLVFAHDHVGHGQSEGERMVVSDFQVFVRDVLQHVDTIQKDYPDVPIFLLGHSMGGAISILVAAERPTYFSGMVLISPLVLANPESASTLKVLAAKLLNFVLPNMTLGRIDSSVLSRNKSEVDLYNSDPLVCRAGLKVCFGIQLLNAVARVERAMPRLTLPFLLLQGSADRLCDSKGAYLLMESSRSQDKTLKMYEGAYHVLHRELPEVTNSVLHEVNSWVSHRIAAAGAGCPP
Put plainly: In vitro competitive activity-based protein profiling, MAGL, mouse. Conditions: read-out: MAGL % inh. 1 μM (mouse).
Method: (§1) Biological Evaluation In Vitro Competitive Activity-Based Protein Profiling.
(§2) Proteomes (mouse brain membrane fraction for mouse assays; human prefrontal cortex membrane fractions for human assays) (50 mL, 1.0 mg/mL total protein concentration) were preincubated with varying concentrations of inhibitors at 37° C. After 30 min, FP-Rh (1.0 mL, 50 mM in DMSO) was added and the mixture was incubated for another 30 min at 37° C. Reactions were quenched with SDS loading buffer (15 μL—4λ) and run on SDS-PAGE.

Assay [3] concerns the target T3, FAAH (Homo sapiens, UniProt O00519).
T3 sequence (O00519 1-579): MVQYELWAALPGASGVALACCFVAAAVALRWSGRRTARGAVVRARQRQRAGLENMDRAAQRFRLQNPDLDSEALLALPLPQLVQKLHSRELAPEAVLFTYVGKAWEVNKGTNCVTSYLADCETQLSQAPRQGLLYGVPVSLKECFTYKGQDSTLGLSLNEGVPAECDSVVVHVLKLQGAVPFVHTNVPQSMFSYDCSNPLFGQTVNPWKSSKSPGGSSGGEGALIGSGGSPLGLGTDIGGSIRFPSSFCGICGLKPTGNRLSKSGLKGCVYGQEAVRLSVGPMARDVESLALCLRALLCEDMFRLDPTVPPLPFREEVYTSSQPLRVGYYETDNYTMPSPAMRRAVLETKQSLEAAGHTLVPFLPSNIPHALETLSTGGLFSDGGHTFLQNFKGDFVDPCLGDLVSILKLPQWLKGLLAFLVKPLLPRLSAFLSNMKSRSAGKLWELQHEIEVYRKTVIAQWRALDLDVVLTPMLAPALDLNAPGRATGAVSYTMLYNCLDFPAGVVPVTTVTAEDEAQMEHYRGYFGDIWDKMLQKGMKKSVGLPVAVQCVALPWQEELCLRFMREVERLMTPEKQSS
Nature of the assay: In vitro competitive activity-based protein profiling, FAAH, human. Conditions: for inhibition at 1 µM: read-out: FAAH % inh. 1 μM (human).
Method: as §1, §2

Assay [4] deals with T4, FAAH (Mus musculus, UniProt O08914).
T4 sequence (O08914 1-579): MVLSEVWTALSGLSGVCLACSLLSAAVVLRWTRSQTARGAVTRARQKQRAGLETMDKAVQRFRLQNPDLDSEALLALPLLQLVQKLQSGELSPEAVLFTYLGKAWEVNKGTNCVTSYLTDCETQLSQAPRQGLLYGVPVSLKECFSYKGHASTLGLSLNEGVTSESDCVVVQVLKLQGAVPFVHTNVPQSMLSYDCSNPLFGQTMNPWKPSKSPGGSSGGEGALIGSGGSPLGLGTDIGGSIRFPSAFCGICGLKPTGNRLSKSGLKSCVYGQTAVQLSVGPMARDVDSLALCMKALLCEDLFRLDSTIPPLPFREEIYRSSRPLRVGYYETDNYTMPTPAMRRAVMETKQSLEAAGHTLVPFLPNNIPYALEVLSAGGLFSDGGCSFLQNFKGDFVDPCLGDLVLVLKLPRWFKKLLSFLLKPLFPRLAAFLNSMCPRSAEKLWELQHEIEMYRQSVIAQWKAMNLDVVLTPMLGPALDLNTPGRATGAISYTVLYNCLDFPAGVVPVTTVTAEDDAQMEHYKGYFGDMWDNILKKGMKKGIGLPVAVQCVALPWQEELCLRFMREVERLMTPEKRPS
Nature of the assay: In vitro competitive activity-based protein profiling, FAAH, mouse. Particulars: read-out: FAAH % inh. 1 μM (mouse).

Broadly, the IC50 is the concentration that inhibits the measured activity by half. High values mean lower potency, low ones higher potency. Consider `O=C(O)c1ccn(C(=O)N2CCN(Cc3ccc(Oc4ccc(Cl)cc4)cc3)CC2)n1` [Example 45, 1-(4-(4-(4-chlorophenoxy)benzyl)piperazine-1-carbonyl)-1H-pyrazole-3-carboxylic acid], for which the inhibition at 1 µM at MAGL [1], at MAGL [2], on FAAH [3] and at FAAH [4] was > 75% each time. For the same compound, the IC50 on FAAH [3] was in the range of 0.1 to 1 µM.
For the compound `NC(=O)c1ccn(C(=O)N2CC3CN(Cc4ccc(C(F)(F)F)cc4)CC3C2)n1` (stereo not shown) [Example 182, 1-(5-(4-(trifluoromethyl)benzyl)octahydro-pyrrolo[3,4-c]pyrrole-2-carbonyl)-1H-pyrazole-3-carboxamide], the inhibition at 1 µM on MAGL [1], on MAGL [2], on FAAH [3] and on FAAH [4] was > 75% in each case.
`NC(=O)c1ccn(C(=O)N2CCN(Cc3cnccc3C(F)(F)F)CC2)n1` [Example 175, 1-(4-((4-(trifluoromethyl)pyridin-3-yl)methyl)piperazine-1-carbonyl)-1H-pyrazole-3-carboxamide]: the inhibition at 1 µM on MAGL [1], on MAGL [2], on FAAH [3] and on FAAH [4] was > 75% in each case. The same compound displayed an IC50 on FAAH [3] of 0.1 to 1 µM.
As to `O=C(O)c1nn(C(=O)N2CC3CN(Cc4ccc(-c5cnc6ccccn56)cc4C(F)(F)F)CC3C2)cc1Cl` (stereo not shown) [Example 20, 4-Chloro-1-(5-(4-(imidazo[1,2-a]pyridin-3-yl)-2-(trifluoromethyl)benzyl)octahydropyrrolo[3,4-c]pyrrole-2-carbonyl)-1H-pyrazole-3-carboxylic Acid], the IC50 lay in the range of 0.1 to 1 µM on MAGL [1] and 1 to 10 µM on FAAH [3]. The inhibition at 1 µM on MAGL [1], on MAGL [2], at FAAH [3] and on FAAH [4] was > 75% in each case.
As to `O=C(O)c1ccn(C(=O)N2C[C@H]3C[C@H](Oc4cccc(-c5ccccc5)c4)C[C@H]3C2)n1` [Example 125, 1-(trans-5-([1,1′-biphenyl]-3-yloxy)octahydro-cyclopenta[c]pyrrole-2-carbonyl)-1H-pyrazole-3-carboxylic acid], the inhibition at 1 µM at MAGL [1], at MAGL [2], on FAAH [3] and at FAAH [4] was > 75% each time.
In the case of `O=C(O)c1ccn(C(=O)N2CCC3(CCN(Cc4cc(F)cc(F)c4)C3)CC2)n1` [Example 79, 1-(2-(3,5-difluorobenzyl)-2,8-diazaspiro[4.5]decane-8-carbonyl)-1H-pyrazole-3-carboxylic acid], the inhibition at 10 µM was > 75% at MAGL [1] (read-out: MAGL % inh. (human) at 10 uM) and 50 to 75% at FAAH [3] (read-out: FAAH % inh. (human) at 10 uM). The inhibition at 1 µM at MAGL [2] and on FAAH [4] was 0 to 25% throughout.
As to `O=C(O)c1ccn(C(=O)N2CCC3(CCN(Cc4cc(Cl)cc(N5CCCC5)c4)C3)CC2)n1` [Example 44, 1-(2-(3-chloro-5-(pyrrolidin-1-yl)benzyl)-2,8-diazaspiro[4.5]decane-8-carbonyl)-1H-pyrazole-3-carboxylic acid], the inhibition at 1 µM on MAGL [1] is > 75%; at MAGL [2], > 75%; on FAAH [3], 0 to 25%; on FAAH [4], 0 to 25%.
`NC(=O)c1ccn(C(=O)N2CCN(Cc3ccc(N4CCOCC4)cc3Cl)CC2)n1` [Example 165, 1-(4-(2-chloro-4-morpholinobenzyl)piperazine-1-carbonyl)-1H-pyrazole-3-carboxamide]: the inhibition at 1 µM on MAGL [1] was > 75%; at MAGL [2], > 75%; at FAAH [3] it was > 75%; at FAAH [4] it was 50 to 75%.
On to `NC(=O)c1ccn(C(=O)N2CCN(Cc3ccc(C(F)(F)F)cc3N3CCCC3)CC2)n1` [Example 173, 1-(4-(2-(pyrrolidin-1-yl)-4-(trifluoromethyl)benzyl)piperazine-1-carbonyl)-1H-pyrazole-3-carboxamide], for which the inhibition at 1 µM at MAGL [1] is > 75%; on MAGL [2], > 75%; at FAAH [3] it was > 75%; at FAAH [4] it was 50 to 75%.
As for `O=C(O)c1ccn(C(=O)N2CCC3(CCN(Cc4cc(Cl)cc(Cl)c4)C3)CC2)n1` [Example 162, 1-(2-(3,5-dichlorobenzyl)-2,8-diazaspiro[4.5]decane-8-carbonyl)-1H-pyrazole-3-carboxylic acid], the inhibition at 1 µM at MAGL [1] was > 75%; on MAGL [2], > 75%; at FAAH [3], > 75%; at FAAH [4], 25 to 50%. The IC50 on FAAH [3] lay within 0.1 to 1 µM.
In the case of `O=C(O)c1nn(C(=O)N2CC3CN(Cc4cc(Cl)ccc4Cl)CC3C2)cc1Cl` (stereo not shown) [Example 136, 4-chloro-1-(5-(2,5-dichlorobenzyl)octa-hydropyrrolo[3,4-c]pyrrole-2-carbonyl)-1H-pyrazole-3-carboxylic acid], the inhibition at 1 µM on MAGL [1], at MAGL [2], at FAAH [3] and on FAAH [4] was > 75% throughout. Besides, the IC50 at FAAH [3] was in the range of 0.1 to 1 µM.
Consider `O=C(O)c1ccn(C(=O)N2CCC3(CCN(Cc4ccc(Oc5ccc(Cl)cc5)cc4)C3)CC2)n1` [Example 75, 1-(2-(4-(4-chlorophenoxy)benzyl)-2,8-diazaspiro[4.5]decane-8-carbonyl)-1H-pyrazole-3-carboxylic acid], for which the inhibition at 1 µM on MAGL [1] is > 75%; at MAGL [2] it was 50 to 75%; at FAAH [3], 0 to 25%; on FAAH [4], 50 to 75%.
With `O=C(O)c1ccn(C(=O)N2CCC3(CCN(Cc4cccc(OC(F)(F)F)c4)C3)CC2)n1` [Example 153, 1-(2-(3-(trifluoromethoxy)benzyl)-2,8-diazaspiro[4.5]decane-8-carbonyl)-1H-pyrazole-3-carboxylic acid], the inhibition at 1 µM at MAGL [1] is > 75%; on MAGL [2], > 75%; on FAAH [3], 0 to 25%; on FAAH [4] it was 25 to 50%.
In the case of `O=C(O)c1ccn(C(=O)N2CCC3(CCN(Cc4ccc(N5CCCC5)c(Cl)c4)C3)CC2)n1` [Example 168, 1-(2-(3-chloro-4-(pyrrolidin-1-yl)benzyl)-2,8-diazaspiro[4.5]decane-8-carbonyl)-1H-pyrazole-3-carboxylic acid], the inhibition at 1 µM at MAGL [1] is 50 to 75%; at MAGL [2], 0 to 25%; at FAAH [3] it was 0 to 25%; on FAAH [4], 0 to 25%.
For `O=C(O)c1ccn(C(=O)N2CCN(Cc3cccc(Oc4ccc(C(F)(F)F)cn4)c3)CC2)n1` [Example 61, 1-(4-(3-((5-(trifluoromethyl)pyridin-2-yl)oxy)benzyl)piper-azine-1-carbonyl)-1H-pyrazole-3-carboxylic acid], the inhibition at 1 µM on MAGL [1], at MAGL [2], on FAAH [3] and at FAAH [4] was > 75% each time. Moreover, on FAAH [3], the IC50 is 0.1 to 1 µM.

These data come from US10266497B2 (ABIDE THERAPEUTICS, INC., priority 2017, dated 2019).
